Reference: patent US9907760B2 (LIBRAGEN, priority 2010, dated 2018)

Experiments:
Format in all cases: cell-based
normal human fibroblasts [1] = experiment: Hyaluronic acid production by normal human fibroblasts treated with supernatant of treated keratinocytes (HA-ELISA); conditions: supernatant on fibroblasts 48 hrs; for % stimulation of hyaluronic acid synthesis: vs Control
Protocol: Normal human dermal fibroblasts were cultured to confluence. Cells were treated for 48 hours with supernatants of normal human keratinocytes previously grown in the presence of the test products. The fibroblast supernatants, containing hyaluronic acid, were collected and assayed immediately. Hyaluronic acid was quantified with an ELISA microtiter plate. Protein content was determined for each well of the microtiter plate.
Primocultures of normal human keratinocytes (NHK) were obtained from cells isolated from skin specimens from plastic surgery.
NHK were seeded at a density of 130,000 cells/well in specific KSFM culture medium (Gibco®, Invitrogen) in a 24-well plate. The plate was placed in a humid incubator (37° C., 5% CO2) for 24 hours.
Primocultures of normal human fibroblasts (NHF) were obtained from cells isolated from skin specimens from plastic surgery.
NHF were seeded at a density of 90,000 cells/well in E-199 culture medium supplemented with 0.5% FCS (Gibco® Invitrogen) in a 24-well plate. The plate was placed in a humid incubator (37° C., 5% CO2) for 24 hours.
The two cell types—NHK and NHF—were plated 48 hours apart.
The different products at the respective concentrations (diluted in KSFM medium, 600 μl) were contacted with NHK cells for 48 hours. Untreated cells were used as the control condition. Two plates were used to separately test NAG, and NAG+vitamin A propionate, on the one hand, and NAG6P, and NAG6P+vitamin A propionate, on the other hand.
Each treatment condition was evaluated on three wells of NHK cells.
After 48 hours, a fraction of NHK cell supernatant (300 μl/well) was removed and transferred well for well into NHF cell supernatants (300 μl E-199/well−fresh medium without FCS).
This gave a final volume of 600 μl/well (50:50 ratio of KSFM/E-199 medium) which remained on the NHF cells for 48 hours.
After 48 hours of treatment, the NHF cell supernatant was collected and centrifuged.
Hyaluronic acid was assayed in the cell supernatants as described in example 1.
The assay was performed in duplicate for each well.
Optical densities (OD) measured on each sample were plotted on a graph (specific standard curve in the kit). The hyaluronic acid concentration was expressed in ng/ml.
The amount of hyaluronic acid released by the cells was determined for each well and for each treatment condition, relative to the cell content expressed as μg of protein. Thus, the final result was expressed as ng/ml of hyaluronic acid per μg of protein.
A mean value was calculated for wells treated with the same concentration of test product. This mean was compared with the mean of the control wells (Student t test−comparison of means−significant difference at 95% if p<0.05* and at 99% if p<0.01**).
The percent stimulation induced by the test products was determined by comparing the mean values of the control and treatment conditions: % Stimulation=(Treated−Control)/Control

normal human fibroblasts [2] = experiment: Procollagen 1 production by normal human fibroblasts treated with supernatant of treated keratinocytes (EIA); conditions: supernatant on fibroblasts 48 hrs; for % stimulation (procollagen 1): vs Control
Protocol: This experiment was carried out according to the method described in example 3. Fibroblast supernatants, containing procollagen 1, were collected and assayed immediately for procollagen 1 by means of an EIA microtiter plate.
After 48 hours of treatment, NHF cell supernatants were collected and centrifuged.
Procollagen 1 was assayed in the cell supernatants by the method described in the Procollagen Type 1 C-peptide EIA kit (MK101, Takara). This is an EIA assay with spectrophotometric detection at 450 nm (Safire, Tecan).
Duplicate determinations were carried out for two wells whereas the third well was assayed only once.
Optical densities (OD) measured on each sample were plotted on a graph (specific standard curve in the kit). The procollagen 1 concentration was expressed in ng/ml.
As in example 3, the protein content was determined in the cell pellets of the supernatants for which procollagen 1 was assayed.
Thus, the final result was expressed as ng/ml of procollagen 1 per μg of protein. A mean value was calculated for wells treated with the same concentration of test product. This mean was compared with the mean of the control wells (Student t test−comparison of means, significant difference at 95% if p<0.05* and at 99% if p<0.01**).
The percent stimulation produced by the test products was determined by comparing the mean values of the control and treatment conditions: % Stimulation=(Treated−Control)/Control

normal human fibroblasts [3] = experiment: Proliferation of normal human fibroblasts treated with supernatant of treated keratinocytes (Cell Proliferation ELISA, BrdU); conditions: supernatant on fibroblasts 48 hrs
Protocol: This experiment evaluated the proliferation of normal human fibroblasts (dermal primocultures) after 48 hours of treatment with supernatant transferred from human keratinocytes.
The “Cell Proliferation ELISA, BrdU” test quantifies cell proliferation by measuring incorporation of bromodeoxyuridine (BrdU) during DNA synthesis followed by luminescence detection.
Cells were placed in the presence of the treatment for a specified time (incubator at 37° C., 5% CO2). The pyrimidine analogue 5-bromo-2′-deoxyuridine (BrdU) was then added and the cells were further incubated (37° C., 5% CO2) for a minimum of 2 hours, during which time BrdU is incorporated in place of thymidine into the DNA of proliferating cells.
The culture medium was removed, then the cells were fixed and the DNA denatured at the same time (antibody accessibility). An anti-BrdU-POD (peroxidase) antibody was added; this antibody binds to BrdU in newly synthesized DNA. The immune complex was then detected by addition of luminol substrate with measurement of luminescence (Genios, Tecan).
NHF were seeded at a density of 5,000 cells/well in E-199 culture medium (Gibco® Invitrogen) in a 96-well Optilux white plate (BD Falcon 353947). The plate was placed in a humid incubator (37° C., 5% CO2) for 24 hours.
The different products at the respective concentrations (diluted in KSFM culture medium, 600 μl) were contacted with NHK cells for 48 hours. Control cells were left untreated. Each treatment conditions was evaluated on three wells of NHK cells.
After 48 hours, a fraction of the NHK cell supernatant was removed. Each sample of supernatant (2 times 100 μl) from a well on the NHK plate (24 wells) was transferred to two wells in the NHF plate already containing 100 μl of E-199 medium per well. […]
Cell proliferation was quantified by the method described in the “Cell Proliferation ELISA, BrdU” kit (Roche Applied Science No. 11669915001). This is an immunological assay with luminescence detection (Genios, Tecan).
The means of the luminescence values (RLU/s) of six wells with the same treatment condition were determined. […] Proliferation of treated cells was expressed as a percentage of the control(untreated cells−100%)(OD treated/OD control×100).

human skin explants = experiment: General morphology of living human skin explants (Masson trichrome)
Protocol: (§1) In particular, the following parameters were evaluated: • general skin morphology after staining with Masson trichrome, • acid glycosaminoglycan (GAG) content after alcian blue staining, • expression level of the hyaluronic acid CD44 receptor after immunolabeling of this receptor.
(§2) Thirty-three explants (approximately 10 mm in diameter) were taken from a person (P712AB36) undergoing abdominoplasty. The explants were divided into 11 groups of three explants and placed in special skin explant survival medium.
(§3) RetinOx+Day cream was applied on the explants at 1 mg/cm^2 on days D0, D2, D3, D6 and D8.
(§4) On D0, D2, D3, D6 and D8, 30 μA of products P1, P2 and P3 were deposited on filter paper disks placed on the explants.
(§5) On D0, the three explants in group CO were sampled and cut in two. One-half was fixed in ordinary Bouin's solution and the other half stored at −80° C. On D6 and D10, three explants from each group were sampled and treated in the same manner.
(§6) After 48 hours of fixing in ordinary Bouin's solution, samples were dried and impregnated in paraffin using a Leica 1020 automated tissue processor, then embedded according to operating procedure MO-H-153 using a Leica EG 1160 embedding station. 5 μm sections were prepared according to operating procedure MO-H-173 using a Leica RM 2125 Minot microtome and mounted on Superfrost® histologic glass microscope slides.
General morphology was studied on paraffin sections stained with Masson trichrome, Goldner variant, according to operating procedure MO-H-157.

[4] = tested on: acid GAGs in the papillary dermis; experiment: Acid glycosaminoglycan (GAG) content of human skin explants (alcian blue staining, image analysis)
Protocol: as §1, §2, §3, §4, §5, §6
Acid GAGs were visualized with alcian blue staining. They were present throughout the papillary dermis.
In this zone, the GAGs under study are stained blue and correspond to acid GAGs.
The intensity of staining was quantified by image analysis.
Acid GAGs were quantified by image analysis. The results are expressed as the percentage of the analyzed area in Table 10 below.

[5] = tested on: hyaluronic acid CD44 receptor; experiment: Expression of the hyaluronic acid CD44 receptor in human skin explants (immunolabeling)
Protocol: as §1, §2, §3, §4, §5
Frozen sections were labeled for the CD44 receptor using mouse anti-CD44 monoclonal antibody (Invitrogen MHC D4400) at 1:100 dilution incubated for 1 hour at room temperature with a biotin/streptavidin amplifier system with FITC. Nuclei were counterstained with propidium iodide.

SMILES: CC(=O)N[C@H]1C(O)O[C@H](COP(=O)(O)O)[C@@H](O)[C@@H]1O (some centres unmarked) [NAG6P, N-acetylglucosamine-6-phosphate]
- Hyaluronic acid (normal human fibroblasts [1]; 5 mM on keratinocytes 48 hrs): 3524.1 ± 198.6 ng/mL
- Hyaluronic acid (ng/ml/μg prot.) (normal human fibroblasts [1]; 5 mM on keratinocytes 48 hrs): 401.7 ± 38.3 ng/ml/μg prot.
- % stimulation of hyaluronic acid synthesis (normal human fibroblasts [1]; 5 mM on keratinocytes 48 hrs): 7%
- Hyaluronic acid (normal human fibroblasts [1]; 10 mM on keratinocytes 48 hrs): 3507.6 ± 213.3 ng/mL
- Hyaluronic acid (ng/ml/μg prot.) (normal human fibroblasts [1]; 10 mM on keratinocytes 48 hrs): 382.9 ± 20.5 ng/ml/μg prot.
- % stimulation of hyaluronic acid synthesis (normal human fibroblasts [1]; 10 mM on keratinocytes 48 hrs): 2%
- Procollagen 1 (normal human fibroblasts [2]; 5 mM on keratinocytes 48 hrs): 653.4 ± 36.6 ng/mL
- Procollagen 1 (ng/ml/μg prot.) (normal human fibroblasts [2]; 5 mM on keratinocytes 48 hrs): 74.6 ± 5.3 ng/ml/μg prot.
- % stimulation (procollagen 1) (normal human fibroblasts [2]; 5 mM on keratinocytes 48 hrs): 2%
- Procollagen 1 (normal human fibroblasts [2]; 10 mM on keratinocytes 48 hrs): 677.7 ± 64.6 ng/mL
- Procollagen 1 (ng/ml/μg prot.) (normal human fibroblasts [2]; 10 mM on keratinocytes 48 hrs): 72.7 ± 4.4 ng/ml/μg prot.
- % stimulation (procollagen 1) (normal human fibroblasts [2]; 10 mM on keratinocytes 48 hrs): −1%
- RLU (normal human fibroblasts [3]; 5 mM on keratinocytes 48 hrs): 4985 ± 184 RLU
- RLU (normal human fibroblasts [3]; 10 mM on keratinocytes 48 hrs): 4903 ± 377 RLU
- General morphology (human skin explants; D10, NAG6P): considerable modifications of epidermal morphology
- General morphology (human skin explants; D10, NAG6P 0.01% (product P3)): clear reorganization/strengthening of the dermal-epidermal junction
- General morphology (human skin explants; D10, NAG6P, listed as N-acetylglucosamine-6-phosphate): does not cause acanthosis
- Acid GAGs, visual analysis ([4]; D6, NAG6P 1% to 0.01%): moderate along the DEJ and present throughout the papillary dermis, in a dose-dependent manner
- Percentage of area occupied by acid GAGs in the papillary dermis, % of analyzed area, Mean ([4]; D10, NAG6P 0.01%): 14.0%
- Percentage of area occupied by acid GAGs in the papillary dermis, % of analyzed area, Mean ([4]; D10, NAG6P 0.1%): 16.3%
- Percentage of area occupied by acid GAGs in the papillary dermis, % of analyzed area, Mean ([4]; D10, NAG6P 1%): 21.0%
- Acid GAGs, visual analysis ([4]; D10, NAG6P 1% to 0.01%): moderately present along the DEJ and throughout the papillary dermis, in a dose-dependent manner
- CD44 expression ([5]; D6, NAG6P 0.01%): overexpression was very moderate
- CD44 expression ([5]; D6, NAG6P 0.1%): mildly overexpressed
- CD44 expression ([5]; D6, NAG6P 1%): mildly overexpressed
- CD44 expression ([5]; D10, NAG6P 0.01%, epidermis and papillary dermis): overexpression was very clear
